We go through 22 compounds from patent US6080750A, “Pyrimidine compound and anti-rotavirus composition” (priority 1996, dated 2000).

For one data set, the system named is rotavirus SA-11 strain. Description: Determination of antiviral activity (50% plaque reduction method). It is filed as cell-based, rotavirus SA-11 (in CV-1 green monkey kidney cells). The settings on record: for IC50: 96 h, read-out: ID50 (50% plaque inhibition dose), rotavirus SA-11; for antiviral index (ED50 /ID50): ED50 CV-1 cells / ID50 rotavirus SA-11. The method, then:
Determination of activity of test compound against rotavirus and evaluation thereof
rotavirus: To a liquid containing preserved rotavirus SA-11 strain was added trypsin (Sigma, acetylated trypsin type V-S) to 10 μg/ml and incubated at 37° C. for 30 minutes to activate the […], after which the culture was diluted to a concentration of 50 plaque forming units (PFU)/0.1 ml with Eagle's minimum essential medium (MEM) and used for the determination.
(§1) cultured cell: CV-1 cells which are green monkey kidney cell line were cultured in MEM supplemented with 10% calf serum. The culture cells were prepared to a concentration of 4×10^5 cells/ml, plated on a 24 well microplate and cultured for 2 days before use for the determination.
Activated rotavirus SA-11 […] were inoculated at 50 PFU/0.1 ml to CV-1 cells cultured in a monolayer on a 24 well microplate. The virus was allowed to adsorb to the cells in 1.5 hours at 37° C. and the surface layer of the cells was washed three times with MEM. Then, a multilayer agar medium (mixed medium of MEM, 3 μg/ml acetylated trypsin and agar at final concentration of 0.8%, all added at 45° C.) containing aliquot of test compounds was superposed on the cell layer. The cells were incubated at 37° C. for 4 days, immobilized with formalin, stained with a crystal violet solution and counted for plaque number.
The antiviral activity was expressed by the concentration of the test compound (50% plaque inhibition dose: ID50 =μg/ml), which decreased plaques formed in the control cell culture without the test compound, by 50%.
ED50 value was divided by ID50 value and the obtained value was used as an antiviral index for the determination of selective anti-rotaviral activity on infected cells in comparison to that on normal cells (host cells).

A further data set concerns male ICR mice. Description: Toxicity test (mouse acute toxicity, minimum lethal dose). In kind it is in vivo. The following applies: oral (po), male ICR mice fasted overnight, survival 14 days. The source says:
A test compound was orally administered to male ICR mice (weight 25-35 g) fasted overnight, and survival thereof was monitored for 14 days.

Data set [1] in a line: Determination of cytotoxicity (50% cell growth inhibition effect). The following applies: monkey; CV-1 cells, 2 days, cell count; read-out: ED50 (50% cell growth inhibition effect dose), CV-1 cells. It is filed as cell-based, green monkey. The method, then: as §1
CV-1 cells were prepared to a concentration of 4×10^4 cells/ml with MEM containing 10% calf serum and plated on a 24 well microplate, which was followed by culture for 2 days. The culture solution thereof was changed to MEM containing 10% calf serum and serially diluted test compounds at various concentrations, and the cells were cultured for 2 days. The cells were prepared into a homogeneous single cell suspension using 0.1% crude trypsin, and counted with a Coulter counter Model D (Coulter Electronics Ltd., England).
The 50% cell growth inhibition effect dose (ED50 =μg/ml) was expressed by the concentration of the test compound, which decreased cell numbers in the control cell culture without the test compound, by 50%.

The mark [2] stands for this setting: in Chlorocebus sabaeus, rotavirus SA-11 50 PFU, CV-1 cells, 37° C., 4 days, plaque count.
Setting [3] is: Rotavirus, CV-1, in Chlorocebus sabaeus.

SMILES strings stand for the structures. In brackets after ≈: the same amount, converted by molar mass. Like-named read-outs stand apart in the source and are kept apart here.

Turning to `Nc1nc(Cl)cc(NCC2(CO)CCC2)n1` [compound No. 35, 2-Amino-6-chloro-4-[[(1-hydroxymethyl-1-cyclobutyl)methyl]amino]-pyrimidine], the IC50 in the data set on rotavirus SA-11 strain (setting [2]) was 7.8 µg/mL (≈ 32.1 µM). Moreover, the “mouse acute toxicity [lethal dose] (minimum lethal dose)” value (“mouse acute toxicity [lethal dose]” below) in the data set with male ICR mice is recorded as above 500 mg/kg.

On to `Nc1nc(Cl)c(N)c(NCC2(CO)CC2)n1` [compound 58], for which the “antiviral index (ED50 /ID50)” value with rotavirus SA-11 strain is above 67. The IC50 in the data set with rotavirus SA-11 strain (setting [3]) worked out at 1.5 µg/mL (≈ 6.16 µM). The CC50 at 48 h in data set [1] is above 100 µg/mL. The “mouse acute toxicity [lethal dose]” value with male ICR mice is on record as above 1000 mg/kg.

`Nc1nc(Cl)cc(NCC2(CO)CC(OCc3ccccc3)C2)n1` (centres unmarked) [compound 39]: in the data set on male ICR mice, the “mouse acute toxicity [lethal dose]” value is reported as above 500 mg/kg.

Take `Nc1nc(Cl)cc(NCC2(O)CCC2)n1` [compound 28]: the “antiviral index (ED50 /ID50)” value in the data set on rotavirus SA-11 strain was above 10. Besides, the IC50 in the data set on rotavirus SA-11 strain (setting [3]) was 3 µg/mL (≈ 13.1 µM). For the same compound, the CC50 at 48 h in data set [1] is above 30 µg/mL.

Regarding `CCC(CC)(CO)CNc1cc(Cl)nc(N)n1` [compound 23], the “antiviral index (ED50 /ID50)” value in the data set with rotavirus SA-11 strain stood at 23. Besides, the IC50 with rotavirus SA-11 strain (setting [2]) came to 3.5 µg/mL (≈ 13.5 µM). The CC50 at 48 h in data set [1] stood at 80 µg/mL (≈ 309 µM).

As to `Nc1nc(Cl)cc(NCC2(CO)CC(c3ccccc3)C2)n1` (centres unmarked) [compound 47], in the data set on male ICR mice, the “mouse acute toxicity [lethal dose]” value was above 500 mg/kg.

`CC(C)(CO)CNc1nc(N)nc(Cl)c1N` [compound 24]: in the data set with rotavirus SA-11 strain, the “antiviral index (ED50 /ID50)” value worked out at 51.1. Moreover, the IC50 with rotavirus SA-11 strain (setting [2]) is 1.1 µg/mL (≈ 4.48 µM). Also, the CC50 at 48 h in data set [1] was determined as 56.2 µg/mL (≈ 229 µM).

Turning to `Nc1nc(Cl)cc(NCC2(CO)CC(CCc3ccccc3)C2)n1` (centres unmarked) [compound 44], in the data set on male ICR mice, the “mouse acute toxicity [lethal dose]” value was above 500 mg/kg.

As for `Nc1nc(Cl)cc(NCC2(CO)CCCC2)n1` [compound 48], the “mouse acute toxicity [lethal dose]” value with male ICR mice is above 500 mg/kg.

Regarding `Cl.Cl.Nc1nc(Cl)c(N)c(NCCO)n1` [compound No. 112, 6-Chloro-2,5-diamino-4-[(2-hydroxyethyl)amino]pyrimidine dihydrochloride], in the data set on male ICR mice, the “mouse acute toxicity [lethal dose]” value is above 1000 mg/kg.

`Nc1nccc(NCC2(CO)CC(CCc3ccccc3)C2)n1` (centres unmarked) [compound No. 5]: the “mouse acute toxicity [lethal dose]” value in the data set on male ICR mice is on record as above 500 mg/kg.

Consider `Nc1nccc(NCC2(CO)CC(OCc3ccccc3)C2)n1` (centres unmarked) [compound No. 3], for which, in the data set with rotavirus SA-11 strain (setting [2]), the IC50 came out at 12.6 µg/mL (≈ 40.1 µM).

Consider `CCC(CC)(CO)CNc1nc(N)nc(Cl)c1N` [compound 25], for which the “antiviral index (ED50 /ID50)” value in the data set on rotavirus SA-11 strain is given as 150.0. Moreover, the IC50 in the data set on rotavirus SA-11 strain (setting [2]) turned out to be 0.2 µg/mL (≈ 0.731 µM). In addition, the CC50 at 48 h in data set [1] was 30 µg/mL (≈ 110 µM).

`COc1cc(NCC2(CO)CCC2)nc(N)n1` [compound 86]: the IC50 in the data set on rotavirus SA-11 strain (setting [2]) was 2.2 µg/mL (≈ 9.23 µM).

For `CC(C)(CO)CNc1cc(Cl)nc(N)n1` [compound No. 20, 2-Amino-6-chloro-4-[(3-hydroxy-2,2-dimethylpropyl)amino]pyrimidine], in the data set on rotavirus SA-11 strain, the “antiviral index (ED50 /ID50)” value is above 9.5. Also, the IC50 with rotavirus SA-11 strain (setting [2]) turned out to be 10.5 µg/mL (≈ 45.5 µM). For the same compound, the CC50 at 48 h in data set [1] was above 1 µg/mL.

As for `Nc1nc(Cl)cc(NCC2(CO)CC(Cc3ccccc3)C2)n1` (centres unmarked) [compound 43], the “mouse acute toxicity [lethal dose]” value with male ICR mice is on record as above 500 mg/kg.

As to `Nc1ncc(Br)c(NCC2(CO)CC(CCc3ccccc3)C2)n1` (centres unmarked) [compound No. 7], the “mouse acute toxicity [lethal dose]” value in the data set on male ICR mice is on record as above 500 mg/kg.

For `Nc1nc(O)c(N)c(NCC2(CO)CC2)n1` [compound 104], the IC50 in the data set on rotavirus SA-11 strain (setting [2]) amounted to 0.6 µg/mL (≈ 2.66 µM). Further, the “mouse acute toxicity [lethal dose]” value in the data set with male ICR mice is above 1000 mg/kg.

For `Nc1nc(Cl)c(N)c(NCC2(CO)CCC2)n1` [compound 59], the “antiviral index (ED50 /ID50)” value with rotavirus SA-11 strain came to 2. The IC50 in the data set with rotavirus SA-11 strain (setting [2]) was 1.9 µg/mL (≈ 7.37 µM). For the same compound, the CC50 at 48 h in data set [1] was 3.6 µg/mL (≈ 14 µM). Besides, the “mouse acute toxicity [lethal dose]” value in the data set with male ICR mice was above 500 mg/kg.

For `Nc1nc(Cl)c(N)c(NCCCO)n1` [compound No. 113, 6-Chloro-2,5-diamino-4-[(3-hydroxypropyl)amino]pyrimidine], the “antiviral index (ED50 /ID50)” value in the data set on rotavirus SA-11 strain is reported as above 38. For the same compound, in the data set on rotavirus SA-11 strain (setting [2]), the IC50 stood at 2.6 µg/mL (≈ 11.9 µM). For the same compound, the CC50 at 48 h in data set [1] was above 100 µg/mL. Moreover, the “mouse acute toxicity [lethal dose]” value in the data set on male ICR mice is listed as above 1000 mg/kg.

Turning to `Nc1ncc(Br)c(NCC2(CO)CCC2)n1` [compound No. 6, 2-Amino-5-bromo-4-[[(1-hydroxymethyl-1-cyclobutyl)methyl]amino]pyrimidine], the IC50 with rotavirus SA-11 strain (setting [2]) is 2.9 µg/mL (≈ 10.1 µM). In the data set on male ICR mice, the “mouse acute toxicity [lethal dose]” value was above 500 mg/kg.

As to `Nc1c(Cl)ncnc1NCC1(CO)CCC1` [compound 18], the “mouse acute toxicity [lethal dose]” value in the data set with male ICR mice is on record as above 500 mg/kg.
